In patent publication US9193733B2, “Piperidinylcyclobutyl substituted pyrrolopyridine and pyrrolopyrimidine derivatives as JAK inhibitors” (Incyte Corporation, priority 2012, dated 2015):
Structures can show the parent of a compound that is named as a salt.

Experiments:
Type in all cases: biochemical
[1] = target: T1, human JAK1 (a.a. 837-1142) catalytic domain (Homo sapiens, UniProt P23458); experiment: In vitro JAK kinase assay (HTRF, phosphorylation of a biotinylated peptide), JAK1; details: 1 mM ATP
T1 construct: human JAK1 (a.a. 837-1142) and JAK2 (a.a. 828-1132); His tag (N); made in house; host or cells: insect cells (baculovirus)
T1 sequence (P23458 849-1154): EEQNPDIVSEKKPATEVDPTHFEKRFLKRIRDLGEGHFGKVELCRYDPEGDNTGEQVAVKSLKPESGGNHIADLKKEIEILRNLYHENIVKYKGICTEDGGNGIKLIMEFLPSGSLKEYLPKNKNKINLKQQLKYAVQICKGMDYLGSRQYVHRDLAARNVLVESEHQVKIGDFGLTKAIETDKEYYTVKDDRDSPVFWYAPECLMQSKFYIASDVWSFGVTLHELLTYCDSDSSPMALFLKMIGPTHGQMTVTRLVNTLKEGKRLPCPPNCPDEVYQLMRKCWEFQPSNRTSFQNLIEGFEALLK
Experimental: (§1) Compounds herein were tested for inhibitory activity of JAK targets according to the following in vitro assay described in Park et al., Analytical Biochemistry 1999, 269, 94-104. The catalytic domains of human JAK1 (a.a. 837-1142) and JAK2 (a.a. 828-1132) with an N-terminal His tag were expressed using baculovirus in insect cells and purified. The catalytic activity of JAK1 and JAK2 was assayed by measuring the phosphorylation of a biotinylated peptide. The phosphorylated peptide was detected by homogenous time resolved fluorescence (HTRF). IC50s of compounds were measured for each kinase in the 40 microL reactions that contain the enzyme, ATP and 500 nM peptide in 50 mM Tris (pH 7.8) buffer with 100 mM NaCl, 5 mM DTT, and 0.1 mg/mL (0.01%) BSA. For the 1 mM IC50 measurements, ATP concentration in the reactions was 1 mM. Reactions were carried out at room temperature for 1 hour and then stopped with 20 μL 45 mM EDTA, 300 nM SA-APC, 6 nM Eu-Py20 in assay buffer (Perkin Elmer, Boston, Mass.). Binding to the Europium labeled antibody took place for 40 minutes and HTRF signal was measured on a Fusion plate reader (Perkin Elmer, Boston, Mass.). See Table A for data related to compounds of the Examples (at 1 mM). Data is indicated as ranges: <20 nM (+), 20 to <150 nM (++), 150 to 500 nM (+++).

[2] = test system: human JAK1 (a.a. 837-1142) catalytic domain; experiment: as above; details: ratio of JAK2 IC50 to JAK1 IC50, 1 mM ATP
Experimental: as §1

[3] = target: T2, human JAK2 (a.a. 828-1132) catalytic domain (Homo sapiens, UniProt O60674); experiment: In vitro JAK kinase assay (HTRF, phosphorylation of a biotinylated peptide), JAK2; details: 1 mM ATP
T2 construct: human JAK1 (a.a. 837-1142) and JAK2 (a.a. 828-1132); His tag (N); made in house; host or cells: insect cells (baculovirus)
T2 sequence (O60674 828-1132): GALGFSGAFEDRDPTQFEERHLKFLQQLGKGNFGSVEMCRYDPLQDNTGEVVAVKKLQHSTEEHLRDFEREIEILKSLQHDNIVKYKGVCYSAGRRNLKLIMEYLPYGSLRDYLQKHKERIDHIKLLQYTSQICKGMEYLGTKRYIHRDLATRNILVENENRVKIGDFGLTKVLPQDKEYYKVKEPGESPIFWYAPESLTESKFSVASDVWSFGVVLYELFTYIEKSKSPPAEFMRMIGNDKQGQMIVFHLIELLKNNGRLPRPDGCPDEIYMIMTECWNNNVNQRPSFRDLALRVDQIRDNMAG
Experimental: as §1

Row | Compound | IC50 [1] | JAK2/JAK1 [2] | IC50 [3]
1 | CN(CCO)Cc1cc(NC2CCN([C@H]3C[C@](CC#N)(n4cc(-c5ncnc6[nH]ccc56)cn4)C3)CC2)nc(C(F)(F)F)c1 [Example 42, {trans-3-(4-{[4-{[(2-hydroxyethyl)(methyl)amino]methyl}-6-(trifluoromethyl)pyridin-2-yl]amino}piperidin-1-yl)-1-[4-(7H-pyrrolo[2,3-d]pyrimidin-4-yl)-1H-pyrazol-1-yl]cyclobutyl}acetonitrile] | < 20 nM | >10 | 20 to 150 nM
2 | C[C@H](O)CNCc1cc(OC2CCN([C@H]3C[C@](CC#N)(n4cc(-c5ncnc6[nH]ccc56)cn4)C3)CC2)nc(C(F)(F)F)c1 [Example 15, {trans-3-(4-{[4-({[(2S)-2-hydroxypropyl]amino}methyl)-6-(trifluoromethyl)pyridin-2-yl]oxy}piperidin-1-yl)-1-[4-(7H-pyrrolo[2,3-d]pyrimidin-4-yl)-1H-pyrazol-1-yl]cyclobutyl}acetonitrile] | < 20 nM | >10 | 20 to 150 nM
3 | CN(CCO)Cc1cc(OC2CCN([C@H]3C[C@](CC#N)(n4cc(-c5ncnc6[nH]ccc56)cn4)C3)CC2)nc(C(F)(F)F)c1 [Example 17, {trans-3-(4-{[4-{[(2-hydroxyethyl)(methyl)amino]methyl}-6-(trifluoromethyl)pyridin-2-yl]oxy}piperidin-1-yl)-1-[4-(7H-pyrrolo[2,3-d]pyrimidin-4-yl)-1H-pyrazol-1-yl]cyclobutyl}acetonitrile] | < 20 nM | >10 | 20 to 150 nM
4 | N#CC[C@]1(n2cc(-c3ncnc4[nH]ccc34)cn2)C[C@H](N2CCC(Oc3cc(CN[C@H]4C[C@@H](O)C4)cc(C(F)(F)F)n3)CC2)C1 [Example 18, {trans-3-(4-{[4-{[(cis-3-hydroxycyclobutyl)amino]methyl}-6-(trifluoromethyl)pyridin-2-yl]oxy}piperidin-1-yl)-1-[4-(7H-pyrrolo[2,3-d]pyrimidin-4-yl)-1H-pyrazol-1-yl]cyclobutyl}acetonitrile 3.6 x trifluoroacetate salt] | < 20 nM | >10 | 20 to 150 nM
5 | CN(Cc1cc(NC2CCN([C@H]3C[C@](CC#N)(n4cc(-c5ncnc6[nH]ccc56)cn4)C3)CC2)nc(C(F)(F)F)c1)C1CC1 [Example 37, {trans-3-(4-{[4-{[cyclopropyl(methyl)amino]methyl}-6-(trifluoromethyl)pyridin-2-yl]amino}piperidin-1-yl)-1-[4-(7H-pyrrolo[2,3-d]pyrimidin-4-yl)-1H-pyrazol-1-yl]cyclobutyl}acetonitrile] | < 20 nM | >10 | 150 to 500 nM
6 | N#CC[C@]1(n2cc(-c3ncnc4[nH]ccc34)cn2)C[C@H](N2CCC(Oc3cc(CN[C@H]4CCOC4)cc(C(F)(F)F)n3)CC2)C1 [Example 7, [trans-1-[4-(7H-pyrrolo[2,3-d]pyrimidin-4-yl)-1H-pyrazol-1-yl]-3-(4-{[4-{[(3S)-tetrahydrofuran-3-ylamino]methyl}-6-(trifluoromethyl)pyridin-2-yl]oxy}piperidin-1-yl)cyclobutyl]acetonitrile] | < 20 nM | >10 | 20 to 150 nM
7 | N#CC[C@]1(n2cc(-c3ncnc4[nH]ccc34)cn2)C[C@H](N2CCC(Oc3cc(Cn4ccnc4)cc(C(F)(F)F)n3)CC2)C1 [Example 22, {trans-3-(4-{[4-(1H-imidazol-1-ylmethyl)-6-(trifluoromethyl)pyridin-2-yl]oxy}piperidin-1-yl)-1-[4-(7H-pyrrolo[2,3-d]pyrimidin-4-yl)-1H-pyrazol-1-yl]cyclobutyl}acetonitrile] | < 20 nM | >10 | 20 to 150 nM
8 | N#CC[C@]1(n2cc(-c3ncnc4[nH]ccc34)cn2)C[C@H](N2CCC(Nc3cc(CN4CCC4)cc(C(F)(F)F)n3)CC2)C1 [Example 39, {trans-3-(4-{[4-(azetidin-1-ylmethyl)-6-(trifluoromethyl)pyridin-2-yl]amino}piperidin-1-yl)-1-[4-(7H-pyrrolo[2,3-d]pyrimidin-4-yl)-1H-pyrazol-1-yl]cyclobutyl}acetonitrile] | < 20 nM | >10 | 20 to 150 nM
9 | N#CC[C@]1(n2cc(-c3ncnc4[nH]ccc34)cn2)C[C@H](N2CCC(Nc3cc(CNCCO)cc(C(F)(F)F)n3)CC2)C1 [Example 33, {trans-3-(4-{[4-{[(2-hydroxyethyl)amino]methyl}-6-(trifluoromethyl)pyridin-2-yl]amino}piperidin-1-yl)-1-[4-(7H-pyrrolo[2,3-d]pyrimidin-4-yl)-1H-pyrazol-1-yl]cyclobutyl}acetonitrile] | < 20 nM | >10 | 20 to 150 nM
10 | N#CC[C@]1(n2cc(-c3ncnc4[nH]ccc34)cn2)C[C@H](N2CCC(Oc3cc(Cn4cccn4)cc(C(F)(F)F)n3)CC2)C1 [Example 25, {trans-3-(4-{[4-(1H-pyrazol-1-ylmethyl)-6-(trifluoromethyl)pyridin-2-yl]oxy}piperidin-1-yl)-1-[4-(7H-pyrrolo[2,3-d]pyrimidin-4-yl)-1H-pyrazol-1-yl]cyclobutyl}acetonitrile] | < 20 nM | >10 | 150 to 500 nM
11 | N#CC[C@]1(n2cc(-c3ncnc4[nH]ccc34)cn2)C[C@H](N2CCC(Nc3cc(CN4CC[C@@H](O)C4)cc(C(F)(F)F)n3)CC2)C1 [Example 44, {trans-3-(4-{[4-{[(3R)-3-hydroxypyrrolidin-1-yl]methyl}-6-(trifluoromethyl)pyridin-2-yl]amino}piperidin-1-yl)-1-[4-(7H-pyrrolo[2,3-d]pyrimidin-4-yl)-1H-pyrazol-1-yl]cyclobutyl}acetonitrile] | < 20 nM | >10 | 20 to 150 nM
12 | N#CC[C@]1(n2cc(-c3ncnc4[nH]ccc34)cn2)C[C@H](N2CCC(Oc3cc(Cn4cncn4)cc(C(F)(F)F)n3)CC2)C1 [Example 23, [trans-1-[4-(7H-pyrrolo[2,3-d]pyrimidin-4-yl)-1H-pyrazol-1-yl]-3-(4-{[4-(1H-1,2,4-triazol-1-ylmethyl)-6-(trifluoromethyl)pyridin-2-yl]oxy}piperidin-1-yl)cyclobutyl]acetonitrile] | < 20 nM | >10 | 20 to 150 nM
13 | CC1(NCc2cc(OC3CCN([C@H]4C[C@](CC#N)(n5cc(-c6ncnc7[nH]ccc67)cn5)C4)CC3)nc(C(F)(F)F)c2)CC1 [Example 10, {trans-3-(4-{[4-{[(1-methylcyclopropyl)amino]methyl}-6-(trifluoromethyl)pyridin-2-yl]oxy}piperidin-1-yl)-1-[4-(7H-pyrrolo[2,3-d]pyrimidin-4-yl)-1H-pyrazol-1-yl]cyclobutyl}acetonitrile] | < 20 nM | >10 | 20 to 150 nM
14 | N#CC[C@]1(n2cc(-c3ncnc4[nH]ccc34)cn2)C[C@H](N2CCC(Nc3cc(CN4CCOCC4)cc(C(F)(F)F)n3)CC2)C1 [Example 40, {trans-3-(4-{[4-(morpholin-4-ylmethyl)-6-(trifluoromethyl)pyridin-2-yl]amino}piperidin-1-yl)-1-[4-(7H-pyrrolo[2,3-d]pyrimidin-4-yl)-1H-pyrazol-1-yl]cyclobutyl}acetonitrile] | < 20 nM | >10 | 20 to 150 nM
15 | N#CC[C@]1(n2cc(-c3ncnc4[nH]ccc34)cn2)C[C@H](N2CCC(Oc3cc(CN4CC5(COC5)C4)cc(C(F)(F)F)n3)CC2)C1 [Example 6, {trans-3-(4-{[4-(2-oxa-6-azaspiro[3.3]hept-6-ylmethyl)-6-(trifluoromethyl)pyridin-2-yl]oxy}piperidin-1-yl)-1-[4-(7H-pyrrolo[2,3-d]pyrimidin-4-yl)-1H-pyrazol-1-yl]cyclobutyl}acetonitrile] | < 20 nM | >10 | 20 to 150 nM
16 | N#CC[C@]1(n2cc(-c3ccnc4[nH]ccc34)cn2)C[C@H](N2CCC(Oc3cc(CNCCO)cc(C(F)(F)F)n3)CC2)C1 [Example 21, {trans-3-(4-{[4-{[(2-hydroxyethyl)amino]methyl}-6-(trifluoromethyl)pyridin-2-yl]oxy}piperidin-1-yl)-1-[4-(1H-pyrrolo[2,3-b]pyridin-4-yl)-1H-pyrazol-1-yl]cyclobutyl}acetonitrile] | < 20 nM | >10 | 150 to 500 nM
17 | N#CC[C@]1(n2cc(-c3ncnc4[nH]ccc34)cn2)C[C@H](N2CCC(Oc3cc(CN4CC(C#N)C4)cc(C(F)(F)F)n3)CC2)C1 [Example 4, 1-{[2-[(1-{trans-3-(cyanomethyl)-3-[4-(7H-pyrrolo[2,3-d]pyrimidin-4-yl)-1H-pyrazol-1-yl]cyclobutyl}piperidin-4-yl)oxy]-6-(trifluoromethyl)pyridin-4-yl]methyl}azetidine-3-carbonitrile] | < 20 nM | >10 | 20 to 150 nM
